Measurements published in a melting point compilation (Tetko et al.; mined from patent text by program, amines drawn as free bases though some values may be those of a salt).

melting point [°C]	SMILES
175 to 177	CN1C(=O)N(c2cc(Cl)cc(Cl)c2)C(=O)[C@]12CNC[C@H]2c1ccc(C#N)cc1
119 to 121	Fc1ccc(-c2cc(Cl)c3sccc3n2)cc1
145 to 150	CC1(C)CC(C2CCC(O)CC2)CC(C)(C)N1 (stereo unspecified)
216 to 222	O=C(O)C1CN(S(=O)(=O)c2ccc3cc(Br)ccc3c2)CCN1C(=O)C1CCN(c2ccncc2)CC1 (stereo unspecified)
251 to 255	CNc1nc(=O)c2ccccc2n1Cc1ccc(F)cc1
141 to 142	Cc1c(-c2cc(O)c(Cl)cc2F)ncnc1C(F)(F)F
163 to 165	Cc1cccc(NC(=O)OCc2ccccn2)c1CNc1cccn2c(C)c(C)nc12
50 to 52	Cc1nnc(C(O)CCCCCCOc2ccccc2)o1 (stereo unspecified)
236 to 239	FC(F)(F)c1ccc2c(c1)Sc1ccccc1NC2=S
135 to 136	NC(CNCC(N)=NO)=NO
101	C#Cc1ccc(C(O)(Cn2cncn2)C(C)(C)C)cc1 (stereo unspecified)
189 to 191	COc1ccc(OC)c(-c2c(C(C)C)cc(C(C)C)cc2C(C)C)c1I
115 to 117	CNc1cc(S(=O)(=O)c2cccc(C(F)(F)F)c2)cc(Br)n1
> 300	O=C(O)c1ccc(-c2cc(-c3ccccc3)no2)cc1
159 to 164	CCCc1c(OCCCCCc2c(O)c(O)cc(Cl)c2Cl)ccc(C(=O)O)c1O
88 to 89	Cc1cc(C)n(Cc2ccc(Cl)cc2Cl)c1C=O
160	CC(NC(=O)c1ccc(-c2ccccc2)cc1)C(=O)O (stereo unspecified)
69 to 78	COC(=O)C1(C)CN(C(=S)Nc2ccc(Cl)cc2)N=C1c1ccc(Cl)cc1 (stereo unspecified)
> 300	Cc1[nH]c(=O)ccc1C#N
280	Nc1cc(-n2cc(C(=O)O)c(=O)c3cc(F)c(F)c(Cl)c32)ncc1F
133 to 135	COC(=O)Cc1cc(Br)c(Sc2ccc(O)c(Cc3ccc(Cl)nn3)c2)c(Br)c1

melting point [°C]	SMILES
148 to 150	CCOC(=O)CN(C(=S)Nc1cc(Cl)ccc1C)c1ccccc1
190 to 193	CN(C)C(=O)Cc1c(C(=O)c2ccccc2)[nH]c2cc(Cl)ccc12
94 to 96	CCCn1cc(-c2ccccc2)c(=O)c(-c2ccccc2)n1
73	CCCCOc1cc(-n2c(=O)cc(C(F)(F)F)n(C)c2=O)c(F)cc1Br
188 to 190	CNc1ncnc2c1ncn2Cc1c(F)cccc1Cl
118 to 119	O=C(O)N[C@@H](CC1CCCCC1)[C@@H](O)[C@@H]1CCCS1
66 to 69	CCCCCCN=C1SC(=CC(=O)O)C(=O)N1CCCCCC
104 to 106	COCCOc1c(S(C)(=O)=O)ccc(C(=O)O)c1C
161 to 162	COc1ccc(N2CCOCC2)c2sc(-c3ncc(-c4csc5ccccc45)[nH]3)nc12
116 to 118	COC(=O)C1(Cl)C[C@H](OC(C)=O)[C@@H](NC(C)=O)[C@H]([C@H](OC(C)=O)[C@@H](COC(C)=O)OC(C)=O)O1 (stereo partly specified)
165	COC(=O)C1Cc2c(nc(C)n2-c2ccc(N(C)C)c(C)c2)CN1C(=O)C(c1ccccc1)c1ccccc1 (stereo unspecified)
192	Cc1ccccc1-c1nccc2c(CC(=O)O)cccc12
145 to 147	Cc1ccc(-c2ccc(S(C)(=O)=O)cc2)n1-c1ccc(-c2ccco2)cc1
138 to 142	CC(=O)CC(=O)C=Cc1ccc2cc[nH]c2c1
65 to 67	Cc1ccccc1Nc1ccccc1C=C(Br)Br
98 to 103	OCc1ccccc1-c1ccccc1CO
159 to 161	O=C(Cc1ccccc1Br)NC1CCC1
122 to 123	CC(C)c1nc(CN(C)C(=O)NC(C(=O)NC(Cc2ccccc2)CC(O)C(Cc2ccccc2)NC(=O)OCc2cncs2)C(C)C)cs1 (stereo unspecified)
137 to 141	OC(CCc1cccc(Br)c1)c1cnc2sc3c(n12)CCCCC3 (stereo unspecified)
126	O=C(c1ccccc1)c1cccc(Cl)c1[N+](=O)[O-]
